Laboratory results taken from PubChem BioAssay (NCI).
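GI50 = concentration required for 50% inhibition of growth. TGI: total growth inhibition.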

Tests used:
Experiment in all cases: NCI tumour cell line growth inhibition, 384-well format
[1] = system: RPMI-8226 leukemia
[2] = system: SF-295 CNS
[3] = system: SNB-75 CNS
[4] = system: A549 NSCLC
[5] = system: HOP-62 NSCLC
[6] = system: LOX IMVI melanoma
[7] = system: KM12 colon
[8] = system: IGROV1 ovarian
[9] = system: TK-10 renal
[10] = system: HS 578T breast
[11] = system: A498 renal
[12] = system: U251 glioblastoma
[13] = system: SF-268 CNS
[14] = system: MOLT-4 leukemia
[15] = system: HCC-2998 colon
[16] = system: SK-OV-3 ovarian
[17] = system: NCI-H322M lung
[18] = system: MDA-MB-231 breast
[19] = system: RXF 393 renal
[20] = system: HT29 colon
[21] = system: NCI/ADR-RES ovarian
[22] = system: SK-MEL-5 melanoma
[23] = system: NCI-H522 lung
[24] = system: HCT-15 colon
[25] = system: T-47D breast
[26] = system: SNB-19 CNS
[27] = system: BT-549 breast
[28] = system: SF-539 CNS
[29] = system: K-562 leukemia

## CC(=O)N1CCN(CCOc2ccc(C3CCN(C4=Nn5c(nnc5C(F)(F)F)CC4)CC3)cc2)CC1
[1]
  GI50: 3.34 µM
  TGI: 13.4 µM
[2]
  GI50: 23.6 µM
  TGI: > 100 µM
[3]
  GI50: 8.08 µM
  TGI: 76.5 µM
[4]
  GI50: 14.2 µM
  TGI: > 100 µM
[5]
  GI50: 4.71 µM
  TGI: 25.9 µM
[6]
  GI50: 3.75 µM
  TGI: 17.9 µM
[7]
  GI50: 12 µM
  TGI: > 100 µM
[8]
  GI50: 6.07 µM
  TGI: 54.1 µM
[9]
  GI50: 20.9 µM
  TGI: > 100 µM
[10]
  GI50: 4.78 µM
  TGI: 31.2 µM
[11]
  GI50: 14.7 µM
  TGI: 77.2 µM
[12]
  GI50: 16.5 µM
  TGI: 67.3 µM
[13]
  GI50: 2.83 µM
  TGI: 12.7 µM
[14]
  GI50: 4.72 µM
  TGI: 21.4 µM
[15]
  GI50: 6.17 µM
  TGI: 24.2 µM
[16]
  GI50: 6.93 µM
  TGI: 31.8 µM
[17]
  GI50: 13 µM
  TGI: > 100 µM
[18]
  GI50: 5.58 µM
  TGI: > 100 µM
[19]
  GI50: 5.97 µM
  TGI: 27.5 µM
[20]
  GI50: 10.4 µM
  TGI: > 100 µM
[21]
  GI50: 24.1 µM
  TGI: 75.6 µM
[22]
  GI50: 4.83 µM
  TGI: 19.7 µM
[23]
  GI50: 2.9 µM
  TGI: 20.1 µM
[24]
  GI50: 18.1 µM
  TGI: > 100 µM
[25]
  GI50: 1.16 µM
  TGI: 7.99 µM
[26]
  GI50: 17.9 µM
  TGI: 83.4 µM
[27]
  GI50: 5.94 µM
  TGI: 39.8 µM
[28]
  GI50: 13.5 µM
  TGI: > 100 µM
[29]
  GI50: 3.66 µM
  TGI: > 100 µM
